In ChEMBL document CHEMBL1201862, “PubChem BioAssay data set” (2004):
Counter-ions that a name gives are not always drawn.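 Protocol summary: plate cells (96-well), add compound at 5 concentrations, incubate 48 h, interpolate endpoints linearly. GI50 is the concentration that inhibits growth by half.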 Active and inactive are the calls of the source. Rule as the data show it: active = GI50 up to about 1.1 µM and inactive = higher.

How the values were obtained:
Test in all cases: inhibition of tumour cell growth, NCI panel, 48 h
A498 = system: A498
CAKI-1 = system: CAKI-1
COLO 205 = system: COLO 205
HCT-15 = system: HCT-15
MDA-MB-435 = system: MDA-MB-435
Malme-3M = system: Malme-3M
NCI-H226 = system: NCI-H226
NCI-H23 = system: NCI-H23
NCI-H460 = system: NCI-H460
PC-3 = system: PC-3
SF-268 = system: SF-268
SK-MEL-2 = system: SK-MEL-2
SK-MEL-5 = system: SK-MEL-5
SNB-19 = system: SNB-19
SW-620 = system: SW-620
TK-10 = system: TK-10
UACC-62 = system: UACC-62
UO-31 = system: UO-31
HOP-62 = system: HOP-62
OVCAR-3 = system: OVCAR-3

SMILES	GI50 (A498)	GI50 (CAKI-1)	GI50 (COLO 205)	GI50 (HCT-15) [µM]	GI50 (MDA-MB-435)	GI50 (Malme-3M)	GI50 (NCI-H226)	GI50 (NCI-H23)	GI50 (NCI-H460)	GI50 (PC-3)	GI50 (SF-268)	GI50 (SK-MEL-2)	GI50 (SK-MEL-5)	GI50 (SNB-19)	GI50 (SW-620)	GI50 (TK-10)	GI50 (UACC-62)	GI50 (UO-31)	GI50 (HOP-62)	GI50 (OVCAR-3)
CC(=O)OC1CC[C@@]2(C)C(=CC[C@@H]3[C@@H]2CC[C@]2(C)C(OC(C)=O)[C@H](n4ccnc4)C[C@@H]32)C1 (some centres not stated)	90.4 µM (inactive)	49.1 µM (inactive)	18.5 µM (inactive)	15.5	16.9 µM (inactive)	14.6 µM (inactive)	36.6 µM (inactive)	37.5 µM (inactive)	17.4 µM (inactive)	16.2 µM (inactive)	41.5 µM (inactive)	16.8 µM (inactive)	16.3 µM (inactive)	62.8 µM (inactive)	33.6 µM (inactive)	> 100 µM (inactive)	16.1 µM (inactive)	36.6 µM (inactive)	–	–
COC1C(=O)CCC2(CO2)C1(O)C1(C)OC1CC=C(C)C (configuration not stated)	26.3 µM (inactive)	38.1 µM (inactive)	16.6 µM (inactive)	19	24.5 µM (inactive)	–	–	46.7 µM (inactive)	27.3 µM (inactive)	28.3 µM (inactive)	33.5 µM (inactive)	27.6 µM (inactive)	14.7 µM (inactive)	15 µM (inactive)	18.4 µM (inactive)	22.9 µM (inactive)	13.7 µM (inactive)	28.4 µM (inactive)	14.7 µM (inactive)	25.2 µM (inactive)
CO/C(=C/C(=O)C(Cl)(Cl)Cl)CC/C(=C\C(=O)C(Cl)(Cl)Cl)OC	35.3 µM (inactive)	24.9 µM (inactive)	40.7 µM (inactive)	22.5	19.8 µM (inactive)	23 µM (inactive)	–	22.4 µM (inactive)	29.1 µM (inactive)	27.4 µM (inactive)	26.1 µM (inactive)	32.4 µM (inactive)	34.2 µM (inactive)	45.8 µM (inactive)	53 µM (inactive)	30.8 µM (inactive)	22 µM (inactive)	20.5 µM (inactive)	20.8 µM (inactive)	26.8 µM (inactive)
Cc1ccc([S+]([O-])c2sccc2C=O)cc1 (configuration not stated)	> 100 µM (inactive)	> 100 µM (inactive)	41 µM (inactive)	27.7	24.7 µM (inactive)	23.4 µM (inactive)	–	30.8 µM (inactive)	21.9 µM (inactive)	34 µM (inactive)	28.8 µM (inactive)	43.6 µM (inactive)	29.1 µM (inactive)	> 100 µM (inactive)	24.2 µM (inactive)	> 100 µM (inactive)	19.3 µM (inactive)	70.1 µM (inactive)	31.3 µM (inactive)	> 10 µM (inactive)
CC(=O)C1(Cc2cccc3ccccc23)S(=O)(=O)OCCOS1(=O)=O	19 µM (inactive)	15.9 µM (inactive)	17 µM (inactive)	19.2	14.7 µM (inactive)	17.3 µM (inactive)	16.8 µM (inactive)	22.9 µM (inactive)	17.3 µM (inactive)	14.2 µM (inactive)	19.9 µM (inactive)	–	12.2 µM (inactive)	18.4 µM (inactive)	18.3 µM (inactive)	17.3 µM (inactive)	14.6 µM (inactive)	15.8 µM (inactive)	20.9 µM (inactive)	19.7 µM (inactive)
Cc1ccc(OCC2OC(n3cnc4c(N(C)C)nc(Br)nc43)CC2Oc2ccc(C)cc2)cc1 (configuration not stated)	> 100 µM (inactive)	> 100 µM (inactive)	> 100 µM (inactive)	> 100	> 100 µM (inactive)	> 100 µM (inactive)	> 100 µM (inactive)	> 100 µM (inactive)	> 100 µM (inactive)	> 100 µM (inactive)	> 100 µM (inactive)	> 100 µM (inactive)	> 100 µM (inactive)	> 100 µM (inactive)	> 100 µM (inactive)	> 100 µM (inactive)	> 100 µM (inactive)	> 100 µM (inactive)	–	> 100 µM (inactive)
COc1cc(/C=C2\C[C@H]3[C@@H]4CC=C5C[C@@H](OC(C)=O)CC[C@]5(C)[C@H]4CC[C@]3(C)\C2=N\O)cc(OC)c1OC	–	3.33 µM (inactive)	3.76 µM (inactive)	4.42	3.82 µM (inactive)	8.95 µM (inactive)	8.45 µM (inactive)	5.7 µM (inactive)	4.08 µM (inactive)	2.54 µM (inactive)	7.82 µM (inactive)	7.01 µM (inactive)	3.61 µM (inactive)	29.9 µM (inactive)	7 µM (inactive)	13.7 µM (inactive)	6.73 µM (inactive)	3.86 µM (inactive)	13.1 µM (inactive)	6.27 µM (inactive)
C[C@@H]1S[C@H](c2c(Cl)cccc2Cl)N2Cc3ccccc3N=C12	> 100 µM (inactive)	> 100 µM (inactive)	> 100 µM (inactive)	> 100	> 100 µM (inactive)	–	–	> 100 µM (inactive)	> 100 µM (inactive)	> 100 µM (inactive)	> 100 µM (inactive)	> 100 µM (inactive)	> 100 µM (inactive)	> 100 µM (inactive)	> 100 µM (inactive)	> 100 µM (inactive)	97.3 µM (inactive)	> 100 µM (inactive)	> 100 µM (inactive)	> 100 µM (inactive)
COC(=O)c1c2c(cc3c1CC1(C3)Cc3cc4c(c(C(=O)OC)c3C1)CCC4)CCC2	> 100 µM (inactive)	–	> 100 µM (inactive)	–	> 100 µM (inactive)	> 100 µM (inactive)	> 100 µM (inactive)	> 100 µM (inactive)	–	> 100 µM (inactive)	–	> 100 µM (inactive)	> 100 µM (inactive)	–	–	> 100 µM (inactive)	55.8 µM (inactive)	13.6 µM (inactive)	> 100 µM (inactive)	> 100 µM (inactive)
N=c1oc2ccc(Cl)cc2cc1C(=O)NC1CCCCC1	63.8 µM (inactive)	> 100 µM (inactive)	51.6 µM (inactive)	37.8	49.2 µM (inactive)	–	90.4 µM (inactive)	> 100 µM (inactive)	59.6 µM (inactive)	68.5 µM (inactive)	> 100 µM (inactive)	47.6 µM (inactive)	84.3 µM (inactive)	> 100 µM (inactive)	96.4 µM (inactive)	–	59.2 µM (inactive)	–	> 100 µM (inactive)	44.4 µM (inactive)
CC(=O)Nc1c(S(=O)(=O)c2ccccc2)c(C)c(C)n1CCN(C)C	> 100 µM (inactive)	> 100 µM (inactive)	> 100 µM (inactive)	> 100	> 100 µM (inactive)	> 100 µM (inactive)	> 100 µM (inactive)	> 100 µM (inactive)	> 100 µM (inactive)	> 100 µM (inactive)	> 100 µM (inactive)	> 100 µM (inactive)	> 100 µM (inactive)	> 100 µM (inactive)	> 100 µM (inactive)	> 100 µM (inactive)	> 100 µM (inactive)	> 100 µM (inactive)	–	> 100 µM (inactive)
CC(=O)OC[C@@]12Cc3ccc(C)c(O)c3[C@]1(C)[C@@H](OC(C)=O)[C@]1(O)[C@H]([C@@H](OC(=O)c3ccccc3)[C@@H](C)[C@H]1OC(C)=O)[C@H]2OC(C)=O	> 50 µM (inactive)	> 50 µM (inactive)	> 50 µM (inactive)	> 50	> 50 µM (inactive)	–	> 50 µM (inactive)	> 50 µM (inactive)	> 50 µM (inactive)	> 50 µM (inactive)	> 50 µM (inactive)	> 50 µM (inactive)	> 50 µM (inactive)	> 50 µM (inactive)	> 50 µM (inactive)	> 50 µM (inactive)	> 50 µM (inactive)	> 50 µM (inactive)	> 50 µM (inactive)	> 50 µM (inactive)
COc1ccc(/C=C2\Sc3nnc(CNc4ccc(Cl)cc4)n3N=C2c2cc(F)c(Cl)cc2Cl)cc1OC	> 100 µM (inactive)	23.6 µM (inactive)	–	15.9	27.2 µM (inactive)	–	> 100 µM (inactive)	28.1 µM (inactive)	53.6 µM (inactive)	67.1 µM (inactive)	20.6 µM (inactive)	> 100 µM (inactive)	> 100 µM (inactive)	–	15.8 µM (inactive)	86.7 µM (inactive)	–	56.9 µM (inactive)	> 100 µM (inactive)	48.1 µM (inactive)
O=C(NNC(=O)c1ccncc1)c1ccncc1	> 100 µM (inactive)	> 100 µM (inactive)	> 100 µM (inactive)	> 100	> 100 µM (inactive)	> 100 µM (inactive)	–	> 100 µM (inactive)	> 100 µM (inactive)	> 100 µM (inactive)	> 100 µM (inactive)	> 100 µM (inactive)	> 100 µM (inactive)	> 100 µM (inactive)	> 100 µM (inactive)	> 100 µM (inactive)	> 100 µM (inactive)	> 100 µM (inactive)	> 100 µM (inactive)	> 100 µM (inactive)
CNNCc1ccc(C(=O)NC(C)C)cc1 [PROCARBAZINE HYDROCHLORIDE]	> 500 µM (inactive)	–	> 500 µM (inactive)	> 415	> 379 µM (inactive)	> 457 µM (inactive)	> 381 µM (inactive)	> 500 µM (inactive)	> 500 µM (inactive)	> 500 µM (inactive)	> 500 µM (inactive)	> 500 µM (inactive)	385 µM (inactive)	> 500 µM (inactive)	> 500 µM (inactive)	> 500 µM (inactive)	366 µM (inactive)	> 500 µM (inactive)	383 µM (inactive)	> 472 µM (inactive)
